Reference: US20220146526A1, “METHOD FOR EVALUATING SAMPLE, ANALYSIS METHOD, METHOD FOR DETECTING DEGRADED SAMPLE, MARKER FOR DETECTING DEGRADED BLOOD PLASMA SAMPLE, AND MARKER FOR DETECTING DEGRADED SERUM SAMPLE” (SHIMADZU CORPORATION, priority 2019, published 2022)

Columns and labels:
Assay type in all cases: physicochemical, human
[1] = LC/MS of serum sample: number of times of freezing and thawing (Table M); set-up: key to Rate of increase or decrease: detection intensity relative to 1 at 2 freeze-thaw cycles; conditions: for Rate of increase or decrease: detection intensity relative to 1 at 2 times; for Number of times when compound is affected / Increase or decrease: serum sample, LC/MS; for Number of times when compound is affected: detection intensity changed by 30% or more vs 2 times of freezing and thawing; for Increase or decrease: detection intensity vs 2 times of freezing and thawing
Procedure, shortened: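 Values are detection intensities relative to serum thawed twice, versus 4, 6 or 10 freeze-thaw cycles. Serum came from blood spun at room temperature, 3500 rpm for 5 minutes. Analysis: electrospray LC/MS in MRM mode, Discovery HS F5-3 column, 40° C, 0.1% formic acid in water and acetonitrile.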

[2] = LC/MS of serum sample: time from blood collection to centrifugation (Table J); conditions: for Rate of increase or decrease: detection intensity relative to 1 at 15 minutes; for Increase or decrease / Time when compound is affected: serum sample, LC/MS; for Increase or decrease: detection intensity vs 15 minutes from blood collection to centrifugation; for Time when compound is affected: time from blood collection to centrifugation, detection intensity changed by 30% or more vs 15 minutes
Procedure, shortened: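 Detection intensities are expressed relative to 1 for samples centrifuged 15 min after blood collection; centrifugation was at room temperature, 3500 rpm, 5 min. Frozen serum was run by electrospray LC-MS in MRM mode, with 0.1% formic acid water/acetonitrile at 0.25 mL/min on a 40 °C F5 column.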

[3] = LC/MS of blood plasma sample: time from blood collection to cooling of blood (Table E); set-up: key to Rate of increase or decrease / Rate of increase or decrease (first value, increase): detection intensity relative to ≤1 min to cooling = 1; conditions: for Rate of increase or decrease: detection intensity relative to 1 at 1 minute or less, blood collection to cooling 5 minutes; for Increase or decrease: detection intensity, blood collection to cooling 5 minutes or more vs 1 minute or less; for Rate of increase or decrease (second value, decrease) / Rate of increase or decrease (first value, increase): different from individual to individual, relative to 1 at 1 minute or less, collection to cooling 5 minutes; for Rate of increase or decrease (second value, decrease): individuals with decrease; for Rate of increase or decrease (first value, increase): individuals with increase
Experimental: At room temperature, 5 mL of blood from a healthy subject was taken into a blood-collecting vessel containing EDTA, and the blood-collecting vessel was inverted for mixing, then cooled, and allowed to stand at 4° C. Here, in order to investigate how the detection intensity of molecules contained in the sample was affected in a case where the time to cooling was set to 5 minutes or more as compared to that in a case where the time to cooling was set to 1 minute or less, preparations were performed under both the former condition and the latter condition. After standing, the blood sample was subjected to centrifugation under a condition of 4° C., 3000 rpm, and 15 minutes. […] After centrifugation, the blood-collecting vessel was left to stand at room temperature for 30 minutes, and the blood plasma was isolated during this 30 minutes. The obtained blood plasma sample was frozen and stored. Here, in order to investigate how the detection intensity of molecules contained in the sample was affected in cases where freezing and thawing was performed 4 times, 6 times, and 10 times after freezing as compared to that in a case where freezing and thawing was performed 2 times after freezing, freezing and thawing was performed under the respective conditions of 2, 4, 6, and 10 times.
(§1) Frozen blood plasma samples and serum samples were subjected to GC/MS or LC/MS. In GC/MS, the blood plasma samples and serum samples were subjected to methoxymation and trimethylsilylation and then introduced to GC-MS.
(§2) Analysis column: Discovery HS F5-3 (inner diameter of 2.1 mm, length of 150 mm, film thickness of 3 μm) (Sigma-Aldrich)
(§3) Column temperature: 40° C.
(§4) (A) 0.1% formic acid (dissolved in water)
(§5) (B) 0.1% formic acid (dissolved in acetonitrile)
(§6) Flow velocity: 0.25 mL/min
(§7) Ionization method: electrospray
(§8) Temperature: • Desolvation Line (DL) temperature: 250° C. • Heat block temperature: 400° C. • Interface temperature: 300° C.
(§9) Gas flow rate: • Nebulizer gas flow rate: 3.0 L/min • Drying gas flow rate: 10.0 L/min • Heating gas flow rate: 10.0 L/min
(§10) Mode: multiple reaction monitoring (MRM)
The rate of increase or decrease in Table E is the value of detection intensity relative to 1 that is the detection intensity in a case where the time from blood collection to cooling is set to 1 minute or less.

[4] = LC/MS of blood plasma sample: time from blood collection to centrifugation (Table D); conditions: blood collection to centrifugation; for Rate of increase or decrease: detection intensity relative to 1 at 15 minutes; for Increase or decrease: detection intensity
Procedure, shortened: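 Detection intensities are expressed relative to samples centrifuged 15 min after collection (=1), measured by electrospray LC/MS in MRM mode (Discovery HS F5-3, 40 °C, formic acid water/acetonitrile gradient at 0.25 mL/min). EDTA blood from a healthy donor was held at 4 °C, centrifuged at 4 °C, 3000 rpm, 15 min, and plasma frozen.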

[5] = LC/MS of blood plasma sample: number of times of freezing and thawing (Table F); conditions: for Increase or decrease: detection intensity; for Rate of increase or decrease: detection intensity relative to 1 at 2 times; for Rate of increase or decrease (second value, decrease) / Rate of increase or decrease (first value, increase): different from individual to individual, relative to 1 at 2 times, freezing and thawing 6 times; for Rate of increase or decrease (second value, decrease): individuals with decrease; for Rate of increase or decrease (first value, increase): individuals with increase
Procedure, shortened: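 Values are detection intensities normalised to 1 for plasma thawed twice, compared against 4, 6 and 10 freeze-thaw cycles. Measured by electrospray LC/MS in MRM mode, formic acid water/acetonitrile mobile phase, column at 40° C. Plasma came from EDTA blood, cooled to 4° C and spun at 3000 rpm for 15 min.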

[6] = LC/MS of serum sample: time from centrifugation to isolation (Table K); set-up: key to Rate of increase or decrease: detection intensity relative to the 30-minute value set as 1; conditions: for Rate of increase or decrease: detection intensity relative to 1 at 30 minutes; for Increase or decrease / Time when compound is affected: serum sample, LC/MS; for Increase or decrease: detection intensity vs 30 minutes from centrifugation to isolation; for Time when compound is affected: time from centrifugation to isolation, detection intensity changed by 30% or more vs 30 minutes
Experimental: After standing, the blood sample was subjected to centrifugation under a condition of room temperature, 3500 rpm, and 5 minutes. […] After centrifugation, the blood-collecting vessel was left to stand at room temperature, and the serum was isolated during this time. Here, in order to investigate how the detection intensity of molecules contained in the sample was affected in cases where the time during which the blood-collecting vessel was left at room temperature was set to 1 hour and 6 hours as compared to that in a case where the time was set to 30 minutes, preparations were performed under the respective conditions of 30 minutes, 1 hour, and 6 hours. The obtained serum sample was frozen and stored. Here, in order to investigate how the detection intensity of molecules contained in the sample was affected in cases where freezing and thawing was performed 4 times, 6 times, and 10 times after freezing as compared to that in a case where freezing and thawing was performed 2 times after freezing, freezing and thawing was performed under the respective conditions of 2, 4, 6, and 10 times.
as §1, §2, §3, §4, §5, §6, §7, §8, §9, §10
The rate of increase or decrease in Table K is the value of detection intensity relative to 1 that is the detection intensity in a case where the time from centrifugation to isolation is set to 30 minutes.

[7] = after 4 hours from blood collection to centrifugation
[8] = freezing and thawing 6 times vs 2 times
[9] = 4 times of freezing and thawing
[10] = after 6 hours from centrifugation to isolation
[11] = freezing and thawing 4 times vs 2 times
[12] = after 1 hour from centrifugation to isolation
[13] = 10 times of freezing and thawing

Row | SMILES | Number of times when compound is affected [1] | Increase or decrease [1] | Rate of increase or decrease [2, 7] | Increase or decrease [2] | Time when compound is affected [2] | Rate of increase or decrease [3] | Increase or decrease [3] | Rate of increase or decrease ([4]; after 4 hours) | Increase or decrease ([4]; after 4 hours vs 15 minutes) | Increase or decrease [5, 8] | Rate of increase or decrease [1, 9] | Rate of increase or decrease [6, 10] | Increase or decrease [6] | Time when compound is affected [6] | Rate of increase or decrease ([5]; freezing and thawing 4 times) | Increase or decrease [5, 11] | Rate of increase or decrease [6, 12] | Rate of increase or decrease [1, 13] | Rate of increase or decrease (second value, decrease) [3] | Rate of increase or decrease (first value, increase) [3] | other results
1 | NC(=O)c1cccnc1 [Nicotinamide] | 6 times | Decrease | 2.16 | Increase | After 4 hours | 1.40 | Increase | 1.44 | Increase | Increase |  |  |  |  |  |  |  |  |  |  | Rate of increase or decrease ([1]; 6 times of freezing and thawing): 0.69
2 | N[C@@H](CS)C(=O)O [Cysteine] | 4 times | Increase |  | Increase | After 6 hours | 1.67 | Increase | 1.33 | Increase |  | 1.37 | 0.61 | Decrease | After 6 hours | 1.99 | Increase |  |  |  |  | Rate of increase or decrease ([2]; after 6 hours from blood collection to centrifugation): 1.39
3 | Nc1ncnc2nc[nH]c12 [Adenine] | 4 times | Decrease |  |  |  | 1.31 | Increase |  |  |  | 0.57 |  | Decrease | After 1 hour hours | 1.37 | Increase | 0.39 |  |  |  | Rate of increase or decrease ([4]; after 6 hours): 0.63; Increase or decrease ([4]; after 6 hours vs 15 minutes): Decrease
4 | N[C@@H](CC(=O)O)C(=O)O [Aspartic acid] | 10 times | Decrease | 2.10 | Increase | After 4 hours | 1.93 | Increase |  |  |  |  | 2.40 | Increase | After 6 hours |  |  |  | 0.53 |  |  | Rate of increase or decrease ([4]; after 6 hours): 1.46; Increase or decrease ([4]; after 6 hours vs 15 minutes): Increase; Rate of increase or decrease ([5]; freezing and thawing 10 times): 1.76; Increase or decrease ([5]; freezing and thawing 10 times vs 2 times): Increase
5 | Nc1ncnc2c1ncn2[C@@H]1O[C@H](COP(=O)(O)O)[C@@H](O)[C@H]1O [Adenosine monophosphate] | 4 times | Decrease |  |  |  |  | Different from individual | 1.56 | Increase |  | 0.23 |  | Decrease | After 1 hour hours | 1.50 | Increase | 0.13 |  | 0.62 | 1.43 | 
6 | Nc1ccn([C@@H]2O[C@H](CO)[C@@H](O)[C@H]2O)c(=O)n1 [Cytidine] | 4 times | Increase | 0.62 | Decrease | After 4 hours |  | Different from individual | 1.95 | Increase | Different from individual | 1.52 |  | Decrease | After 1 hour hours |  |  | 0.70 |  | 0.46 | 2.56 | Rate of increase or decrease (second value, decrease) [5]: 0.30; Rate of increase or decrease (first value, increase) [5]: 1.54
7 | O=C(O)[C@@H]1CCCN1 [Proline] | 10 times | Decrease |  | Increase | After 12 hours | 1.41 | Increase | 2.20 | Increase |  |  | 2.35 | Increase | After 6 hours |  |  |  | 0.59 |  |  | 
8 | NCCc1c[nH]c2ccc(O)cc12 [Serotonin] | 10 times | Decrease |  |  |  |  | Different from individual | 2.95 | Increase | Different from individual |  |  | Decrease | After 1 hour hours |  |  | 0.52 | 0.65 | 0.63 | 1.62 | Rate of increase or decrease (second value, decrease) [5]: 0.68; Rate of increase or decrease (first value, increase) [5]: 1.57
